Where two headings read alike, the source gives them in different places.
Experiments:
[1] = system: atherosclerotic plaque; conditions: diabetic/hypercholesterolemic swine, Wilensky et al.; cited from earlier work
[2] = biological target: T1, Lp-PLA2 in rabbit serum (Oryctolagus cuniculus, UniProt G1SE06); assay: In vitro inhibitory activity towards the enzyme Lp-PLA2 in rabbit serum, [3H]PAF substrate; assay type: biochemical; conditions: 100 nM
T1 construct: from tissue; host or cells: rabbit serum
T1 sequence (G1SE06 22-423): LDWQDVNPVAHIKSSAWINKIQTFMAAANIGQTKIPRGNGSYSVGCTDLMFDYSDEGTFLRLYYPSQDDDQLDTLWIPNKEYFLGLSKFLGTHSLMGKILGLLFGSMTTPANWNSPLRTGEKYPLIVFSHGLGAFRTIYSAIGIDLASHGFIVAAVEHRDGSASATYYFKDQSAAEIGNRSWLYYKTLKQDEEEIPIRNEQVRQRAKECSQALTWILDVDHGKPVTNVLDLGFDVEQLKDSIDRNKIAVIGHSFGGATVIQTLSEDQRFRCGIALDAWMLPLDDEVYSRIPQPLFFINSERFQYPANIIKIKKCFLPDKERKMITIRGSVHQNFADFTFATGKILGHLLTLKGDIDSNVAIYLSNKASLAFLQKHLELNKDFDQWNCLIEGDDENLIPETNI

[3] = biological target: T2, Lp-PLA2 in human serum (Homo sapiens, UniProt Q13093); assay: In vitro inhibitory activity towards the enzyme Lp-PLA2 in human serum, [3H]PAF substrate; assay type: biochemical; conditions: for inhibition at 0.01 µM: 10 nM; for inhibition at 0.1 µM: 100 nM
T2 construct: from tissue
T2 sequence (Q13093 22-441): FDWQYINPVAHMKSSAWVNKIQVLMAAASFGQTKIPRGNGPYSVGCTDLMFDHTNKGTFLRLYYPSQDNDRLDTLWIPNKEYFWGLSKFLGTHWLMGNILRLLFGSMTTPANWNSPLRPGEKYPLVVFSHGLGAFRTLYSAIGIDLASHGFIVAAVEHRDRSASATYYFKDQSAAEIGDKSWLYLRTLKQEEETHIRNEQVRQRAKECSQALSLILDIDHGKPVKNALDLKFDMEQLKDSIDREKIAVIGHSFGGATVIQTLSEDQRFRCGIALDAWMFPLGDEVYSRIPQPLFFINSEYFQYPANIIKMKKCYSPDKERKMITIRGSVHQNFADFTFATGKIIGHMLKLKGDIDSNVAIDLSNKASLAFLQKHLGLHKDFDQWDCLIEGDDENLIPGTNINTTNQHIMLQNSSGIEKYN
Outline: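 Human plasma was preincubated with compound 10 min at 37 °C in 50 mM HEPES, 150 mM NaCl, pH 7.4. Reaction started with 20 nM [3H]PAF, run 10 min at 37 °C, then extracted with CHCl3/MeOH (2:1); radioactivity of the supernatant was counted.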

[4] = rabbit serum, read-out: inhibition, %
[5] = human serum, read-out: inhibition, %

| SMILES | atherosclerotic plaque progression [1] | inhibition at 0.1 µM [2, 4] [%] | inhibition at 0.01 µM [3, 5] [%] | inhibition at 0.1 µM ([3]; human serum) [%] | inhibition at 0.1 µM ([2]; read-out: inhibitory rate towards the rabbit serum derived Lp-PLA2 enzyme) [%] | inhibition at 0.01 µM ([3]; read-out: inhibitory rate towards the human serum derived Lp-PLA2 enzyme) [%] |
| --- | --- | --- | --- | --- | --- | --- |
| CCN(CC)CCN(Cc1ccc(-c2ccc(C(F)(F)F)cc2)cc1)C(=O)Cn1c(SCc2ccc(F)cc2)nc(=O)c2c1CCC2 [darapladib, Darapladib] | remarkably reduced the atherosclerotic plaque progression | – | – | – | – | – |
| CN(C)Cc1nnc(Cn2c(SCc3ccc(F)cc3)nc(=O)c3c2CCC3)n1Cc1ccc(-c2ccc(C(F)(F)F)cc2)cc1 [Example 75, 1-((5-((dimethylamino)methyl)-4-((4′-(trifluoromethyl)biphenyl-4-yl)methyl)-4H-1,2,4-triazol-3-yl)methyl)-2-(4-fluorobenzylthio)-6,7-dihydro-1H-cyclopenta[d]pyrimidin-4(5H)-one] | – | 88.3 | 85 | 97 | – | – |
| COC(=O)C(C)(C)NCc1nnc(Cn2c(SCc3ccc(F)cc3)nc(=O)c3c2CCC3)n1Cc1ccc(-c2ccc(C(F)(F)F)cc2)cc1 [Example 85, methyl-2-((5-((2-(4-fluorobenzylthio)-4-oxo-4,5,6,7-tetrahydro-1H-cyclopenta[d]pyrimidin-1-yl)methyl)-4-((4′-(trifluoromethyl)biphenyl-4-yl)methyl)-4H-1,2,4-triazol-3-yl)methylamino)-2-methylpropanoate] | – | 77 | 59 | 91 | – | – |
| CCN1CCC[C@H]1CNCc1nnc(Cn2c(SCc3ccc(F)cc3)nc(=O)c3c2CCC3)n1Cc1ccc(-c2ccc(C(F)(F)F)cc2)cc1 [Example 106, (S)-1-((5-(((1-ethylpyrrolidin-2-yl)methylamino)methyl)-4-((4′-(trifluoromethyl)biphenyl-4-yl)methyl)-4H-1,2,4-triazol-3-yl)methyl)-2-(4-fluorobenzylthio)-6,7-dihydro-1H-cyclopenta[d]pyrimidin-4(5H)-one] | – | 96 | 80 | – | > 90 | > 80 |
| CCN(CC)Cc1onc(Cn2c(SCc3ccc(F)cc3)nc(=O)c3c2CCC3)c1Cc1ccc(-c2ccc(C(F)(F)F)cc2)cc1 [Example 157, 1-((5-((diethylamino)methyl)-4-((4′-(trifluoromethyl)biphenyl-4-yl)methyl)isoxazol-3-yl)methyl)-2-(4-fluorobenzylthio)-6,7-dihydro-1H-cyclopenta[d]pyrimidin-4(5H)-one] | – | 89 | 96 | – | – | – |

Source: patent US20140171431A1, “AZOLE HETEROCYCLIC COMPOUND, PREPARATION METHOD, PHARMACEUTICAL COMPOSITION AND USE” (priority 2011, published 2014)
